Entries after “also recorded” stand apart in the source; their conditions may differ.
How the values were obtained:
Type in all cases: cell-based, human
AICS-44 (Golgi) = test: Predicted, label free imaging of drug effects (FIG. 10C, 10E); conditions: AICS-44 cells; predicted label free images
Text: (§1) FIGS. 10A-10H show the predicted, label free imaging effects of different drugs on different, differentiated, hiPSC cell lines. […] Brefeldin inhibits protein transport from the endoplasmic reticulum to the golgi complex indirectly by preventing association of COP-I coat to the Golgi membrane.

AICS-61 (Histone) = test: Predicted, label free imaging of drug effects (FIG. 10B, 10G); conditions: AICS-61 cells; predicted label free images
Text: as §1

[1] = tested on: AICS-24 (non-muscle Myosin); test: Predicted, label free imaging of drug effects (FIG. 10D); conditions: AICS-24 cells; predicted label free images
Text: as §1

hiPSC = test: Effect on microtubules and DNA during mitosis (FIG. 7)
Text: Microtubules, DNA, and Cell membrane are each labeled.

[2] = tested on: Cell Line ID: AICS-0012 c1.105, Alpha tubulin mEGFP-tagged; test: Label free prediction of condensed DNA from brightfield images (FIG. 9C-9D); conditions: 5 μM, 2 hours, vs DMSO control
Text: (§2) Predicted imaging was also used with H2B (DNA) on Cell Line ID: AICS-0012 c1.105, Alpha tubulin mEGFP-tagged, to confirm the phenotype by two structures from the same cells.
FIGS. 9C and 9D show the predicted images, based on the label free prediction model, obtained by imaging the nucleus of the cells with brightfield microscopy, and predicting the location and amount of condensed DNA, based on the trained model.

[3] = tested on: hiPSC Cell Line ID: AICS-0061 c1.36 Histone H2B type 1-J mEGFP-tagged; test: Label free prediction of condensed DNA from brightfield images (FIG. 8C-8D); conditions: 5 μM, 2 hours, vs DMSO control
Text: (§3) The fluorescent signal from the hiPSC Cell Line ID: AICS-0061 c1.36 Histone H2B type 1-J mEGFP-tagged (DNA tag) was used to train and validate the label free prediction model.
FIGS. 8C and 8D show the predicted images, based on the label free prediction model, obtained by imaging the nucleus of the cells with brightfield microscopy, and predicting the location and amount of condensed DNA, based on the trained model.

[4] = tested on: EGFP-tagged cell lines AICS-23, AICS-44, AICS-61, AICS-24 and AICS-16; test: Drug perturbation signature using label free prediction of DNA (FIG. 11A-11C); conditions: population statistics after DNA segmentation of label free prediction
Experimental: FIG. 11A-11C show the drug perturbation signature using label free prediction, as described herein.
These signatures were distinct from those of other drug perturbations such as BIX, Brefeldin, H89, and Monensin. The identification of these perturbation signatures were performed in the following EGFP-tagged cell lines; AICS-23 (tight junction), AICS-44 (Golgi), AICS-61 (Histone), AICS-24 (non-muscle Myosin) and AICS-16 (beta Actin) without additional introduction of DNA signals.

[5] = tested on: hiPSC Cell Line ID: AICS-0061 c1.36 Histone H2B type 1-J mEGFP-tagged; test: Fluorescence imaging of Histone H2B mEGFP-tagged hiPSCs (FIG. 8E-8F); conditions: 5 μM, 2 hours; mEGFP DNA tag; vs DMSO control
Text: as §3

[6] = tested on: Cell Line ID: AICS-0012 c1.105, Alpha tubulin mEGFP-tagged; test: Fluorescence imaging of Alpha tubulin mEGFP-tagged hiPSCs (FIG. 9E-9F); conditions: 5 μM, 2 hours, vs DMSO control
Text: as §2

AICS-16 (beta Actin) = test: Predicted, label free imaging of drug effects (FIG. 10F, 10H); conditions: AICS-16 cells; predicted label free images
Text: as §1

## COc1cc2nc(N3CCCN(C)CC3)nc(NC3CCN(Cc4ccccc4)CC3)c2cc1OC [BIX-01294]
AICS-44 (Golgi)
  predicted effect on DNA, nuclear size, or microtubule formation: no predicted effect on DNA, nuclear size, or microtubule formation

## C[C@H]1CCC/C=C/[C@@H]2C[C@H](O)C[C@H]2[C@H](O)/C=C/C(=O)O1 [Brefeldin]
AICS-44 (Golgi)
  predicted effect on DNA, nuclear size, or microtubule formation: no predicted effect on DNA, nuclear size, or microtubule formation

## O=S(=O)(NCCNC/C=C/c1ccc(Br)cc1)c1cccc2cnccc12 [H89]
AICS-61 (Histone)
  predicted effect on DNA, nuclear size, or microtubule formation: no predicted effect on DNA, nuclear size, or microtubule formation

## CC[C@@]1([C@@H]2O[C@@H]([C@H]3O[C@@](O)(CO)[C@H](C)C[C@@H]3C)C[C@@H]2C)CC[C@H]([C@]2(C)CC[C@]3(C[C@H](O)[C@@H](C)[C@@H]([C@@H](C)[C@@H](OC)[C@H](C)C(=O)O)O3)O2)O1 [Monensin]
[1]
  predicted effect on DNA, nuclear size, or microtubule formation: no predicted effect on DNA, nuclear size, or microtubule formation

## CC(=O)O[C@H]1C(=O)[C@@]2(C)[C@H]([C@H](OC(=O)c3ccccc3)[C@]3(O)C[C@H](OC(=O)[C@H](O)[C@@H](NC(=O)c4ccccc4)c4ccccc4)C(C)=C1C3(C)C)[C@]1(OC(C)=O)CO[C@@H]1C[C@@H]2O [Paclitaxel]
hiPSC
  microtubule bundle thickness: increases microtubule bundle thickness
hiPSC; mitosis
  effect on hiPSC division: arrest of cells in metaphase
hiPSC; mitosis, FIG. 7
  microtubule density: increase in microtubule density
[2]
  amount of condensed DNA in predicted images: higher than the control cells
AICS-61 (Histone)
  predicted effect on DNA, nuclear size, or microtubule formation: condensed DNA (condensed microtubules)
[3]
  amount of condensed DNA in predicted images: higher than the control cells
[4]
  condensed DNA frequency (perturbation signature in predicted images): increase in frequency of DNA condensation frequency; also recorded: increased condensed DNA Frequency
  nuclear density (perturbation signature in predicted images): higher nuclear density
  nuclear volume (perturbation signature in predicted images): larger nuclear volume
[5]
  condensed DNA, fluorescence image: increase in condensed DNA
[6]
  microtubule formation, fluorescence image: increase in microtubule formation

## C/C=C(/C)C(=O)O[C@H]1C(C)=C2[C@H]([C@@H]1OC(=O)CCCCCCC)[C@@](C)(OC(C)=O)C[C@H](OC(=O)CCC)[C@@]1(O)[C@H]2OC(=O)[C@@]1(C)O [Thapsigargin]
AICS-16 (beta Actin)
  predicted effect on DNA, nuclear size, or microtubule formation: no predicted effect on DNA, nuclear size, or microtubule formation
